From patent publication US20260055102A1 (Redx Pharma Limited, priority 2022, published 2026)

Columns and labels:
[1] = biological target: Recombinant human DDR2 (aa427-855 containing a GST tag) (Homo sapiens (Human), UniProt Q16832); assay: LanthaScreen Eu Kinase Binding Assay DDR2; conditions: Kinase Tracer 178 10 nM, at least two independent replicates; for IC50: read-out: DDR2 pIC50 (converted)
Protocol: (§1) DDR1 and DDR2 Biochemical Assay Method The capacity of compounds to bind to DDR1 and DDR2 was quantified using a LanthaScreen Eu Kinase Binding Assay. Recombinant human DDR1 (2.5 nM; aa440-876 containing a GST tag) and DDR2 (1.75 nM; aa427-855 containing a GST tag) were diluted in assay buffer (50 mM HEPES pH7.3, 10 mM MgCl2, 1 mM EGTA and 0.01% Tween) with various concentrations of compound in a 384-well plate and a volume of 5 uL. After a 30-minute incubation at room temperature, 2.5 uL of Eu-anti GST antibody (diluted to 1 nM in assay buffer) plus Kinase Tracer 178 (diluted in assay buffer to 5 nM for DDR1 and 10 nM for DDR2) were added to the plate. Following 60-minute incubation at room temperature, time-resolved fluorescence was measured on a BMG Labtech PHERAstar plate reader. DMSO (1%) and reference compound (1 μM) were used to generate the Max and Min assay signals, respectively. Data was analysed using a four-parameter logistic model to calculate IC50 values, with at least two independent replicates were performed for each compound.

[2] = biological target: Recombinant human DDR1 (aa440-876 containing a GST tag) (Homo sapiens (Human), UniProt Q08345); assay: LanthaScreen Eu Kinase Binding Assay DDR1; conditions: Kinase Tracer 178 5 nM, at least two independent replicates; for IC50: read-out: DDR1 pIC50 (converted)
Protocol: as §1

Chain of Recombinant human DDR2 (aa427-855 containing a GST tag) (Q16832 427-855): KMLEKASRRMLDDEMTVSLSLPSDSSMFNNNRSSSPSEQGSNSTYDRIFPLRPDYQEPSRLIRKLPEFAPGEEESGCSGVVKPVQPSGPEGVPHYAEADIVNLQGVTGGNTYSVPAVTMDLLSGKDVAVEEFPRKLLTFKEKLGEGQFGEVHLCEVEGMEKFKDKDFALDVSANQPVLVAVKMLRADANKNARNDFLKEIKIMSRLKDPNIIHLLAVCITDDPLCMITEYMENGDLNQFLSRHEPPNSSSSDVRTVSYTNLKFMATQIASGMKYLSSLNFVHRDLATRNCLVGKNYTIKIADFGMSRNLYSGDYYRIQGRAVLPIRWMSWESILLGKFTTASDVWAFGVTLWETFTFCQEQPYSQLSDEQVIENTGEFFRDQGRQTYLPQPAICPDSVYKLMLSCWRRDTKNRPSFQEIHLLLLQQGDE
Chain of Recombinant human DDR1 (aa440-876 containing a GST tag) (Q08345 other isoform, or with tags, fused parts or gaps): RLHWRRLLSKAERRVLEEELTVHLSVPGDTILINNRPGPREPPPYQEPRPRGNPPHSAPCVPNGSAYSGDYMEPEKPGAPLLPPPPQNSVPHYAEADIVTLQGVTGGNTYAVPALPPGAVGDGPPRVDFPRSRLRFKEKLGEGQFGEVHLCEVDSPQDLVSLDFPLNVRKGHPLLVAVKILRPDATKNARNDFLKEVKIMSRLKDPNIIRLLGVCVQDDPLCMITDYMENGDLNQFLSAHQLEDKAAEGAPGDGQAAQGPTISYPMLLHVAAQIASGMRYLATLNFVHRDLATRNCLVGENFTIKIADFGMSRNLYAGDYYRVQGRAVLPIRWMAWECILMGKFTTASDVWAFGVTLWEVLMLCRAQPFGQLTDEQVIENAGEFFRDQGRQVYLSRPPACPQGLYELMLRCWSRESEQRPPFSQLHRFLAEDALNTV

Cn1ncc2c(-c3ccc(-n4c(=O)n(CC(=O)N5CCCC[C@H]5C(F)(F)F)c5ccccc54)cc3)cncc21 [Example 32, 1-[4-(1-methylpyrazolo[3,4-c]pyridin-4-yl)phenyl]-3-[2-oxo-2-[(2S)-2-(trifluoromethyl)-1-piperidyl]ethyl]benzimidazol-2-one]
IC50 [1]: 0.1 to 1 µM | DDR1 pIC50 [2]: A (pIC50>8)

Cc1cc(-c2cncc3c2cnn3C)ccc1-n1c(=O)n(CC(=O)NCC(F)(F)F)c2cccc(Cl)c21 [Example 83, 2-[4-chloro-3-[2-methyl-4-(1-methylpyrazolo[3,4-c]pyridin-4-yl)phenyl]-2-oxo-benzimidazol-1-yl]-N-(2,2,2-trifluoroethyl)acetamide]
IC50 [1]: 0.1 to 1 µM | DDR1 pIC50 [2]: A (pIC50>8)

Cn1ncc2c(-c3ccc(-n4c(=O)n(CC(=O)N5CCC[C@H](C(F)(F)F)C5)c5ccccc54)cc3)cncc21 [Example 31, 1-[4-(1-methylpyrazolo[3,4-c]pyridin-4-yl)phenyl]-3-[2-oxo-2-[(3S)-3-(trifluoromethyl)-1-piperidyl]ethyl]benzimidazol-2-one]
DDR2 pIC50 [1]: D (pIC50≤6) | DDR1 pIC50 [2]: A (pIC50>8)

Cc1cc(-c2cncc3c2cnn3C)ccc1-n1c(=O)n(CC(=O)NCC(F)(F)F)c2cccc(C)c21 [Example 16, 2-[4-methyl-3-[2-methyl-4-(1-methylpyrazolo[3,4-c]pyridin-4-yl)phenyl]-2-oxo-benzimidazol-1-yl]-N-(2,2,2-trifluoroethyl)acetamide]
IC50 [1]: 0.1 to 1 µM | DDR1 pIC50 [2]: A (pIC50>8)

Cc1cc(-c2cncc3c2cnn3C)ncc1-n1c(=O)n(CC(=O)N[C@H](C)C(F)(F)F)c2cccc(C)c21 [Example 107]
DDR2 pIC50 [1]: D (pIC50≤6) | IC50 [2]: 0.1 to 1 µM

Cc1cccc2c1n(-c1ccc(-c3cncc4[nH]ncc34)cn1)c(=O)n2CC(=O)N[C@@H](C)C(F)(F)F [Example 69, 2-[4-methyl-2-oxo-3-[5-(1H-pyrazolo[3,4-c]pyridin-4-yl)-2-pyridyl]benzimidazol-1-yl]-N-[(1S)-2,2,2-trifluoro-1-methyl-ethyl]acetamide]
IC50 [1]: 0.01 to 0.1 µM | DDR1 pIC50 [2]: A (pIC50>8)

Cc1cccc2c1n(-c1ccc(-c3cncc4c3cnn4C)nn1)c(=O)n2CC(=O)NCC(F)(F)F [Example 67, 2-[4-methyl-3-[6-(1-methylpyrazolo[3,4-c]pyridin-4-yl)pyridazin-3-yl]-2-oxo-benzimidazol-1-yl]-N-(2,2,2-trifluoroethyl)acetamide]
IC50 [1]: 0.1 to 1 µM | IC50 [2]: 0.01 to 0.1 µM

Cn1ncc2c(-c3ccc(-n4c(=O)n(CC(=O)N5CCCC[C@@H]5C(F)(F)F)c5ccccc54)cc3)cncc21 [Example 30, 1-[4-(1-methylpyrazolo[3,4-c]pyridin-4-yl)phenyl]-3-[2-oxo-2-[(2R)-2-(trifluoromethyl)-1-piperidyl]ethyl]benzimidazol-2-one]
DDR2 pIC50 [1]: D (pIC50≤6) | IC50 [2]: 0.1 to 1 µM

Cc1cc(-c2cncc3c2cnn3C)ccc1-n1c(=O)n(CC(=O)NCC(F)(F)F)c2ccccc21 [Example 13, 2-[3-[2-methyl-4-(1-methylpyrazolo[3,4-c]pyridin-4-yl)phenyl]-2-oxobenzimidazol-1-yl]-N-(2,2,2-trifluoroethyl)acetamide]
DDR2 pIC50 [1]: D (pIC50≤6) | IC50 [2]: 0.01 to 0.1 µM

COc1cc(-c2cncc3c2cnn3C)ccc1-n1c(=O)n(CC(=O)NCC(F)(F)F)c2ccccc21 [Example 88, 2-[3-[2-methoxy-4-(1-methylpyrazolo[3,4-c]pyridin-4-yl)phenyl]-2-oxo-benzimidazol-1-yl]-N-(2,2,2-trifluoroethyl)acetamide]
DDR2 pIC50 [1]: D (pIC50≤6) | IC50 [2]: 0.1 to 1 µM

O=C(Cn1c(=O)n(-c2ccc(-c3cncc4[nH]ncc34)cc2)c2ccccc21)NCC(F)(F)F [Example 41, 2-[2-oxo-3-[4-(1H-pyrazolo[3,4-c]pyridin-4-yl)phenyl]benzimidazol-1-yl]-N-(2,2,2-trifluoroethyl)acetamide]
IC50 [1]: 0.1 to 1 µM | IC50 [2]: 0.01 to 0.1 µM

Cn1ncc2c(-c3ccc(-n4c(=O)n(CC(=O)N5CCCC(C(F)(F)F)C5)c5ccccc54)cc3)cncc21 (stereo not drawn) [Example 23, 1-[4-(1-methylpyrazolo[3,4-c]pyridin-4-yl)phenyl]-3-[2-oxo-2-[3-(trifluoromethyl)-1-piperidyl]ethyl]benzimidazol-2-one]
DDR2 pIC50 [1]: D (pIC50≤6) | DDR1 pIC50 [2]: A (pIC50>8)

Cn1ncc2c(-c3ccc(-n4c(=O)n(CC(=O)N5CCC[C@H]5C(F)F)c5ccccc54)cc3)cncc21 [Example 25, 1-[2-[(2S)-2-(difluoromethyl)pyrrolidin-1-yl]-2-oxo-ethyl]-3-[4-(1-methylpyrazolo[3,4-c]pyridin-4-yl)phenyl]benzimidazol-2-one]
IC50 [1]: 0.01 to 0.1 µM | DDR1 pIC50 [2]: A (pIC50>8)

Cc1cc(-c2cncc3c2cnn3C)cnc1-n1c(=O)n(CC(=O)NCC(F)(F)F)c2cccc(C)c21 [Example 110]
DDR2 pIC50 [1]: D (pIC50≤6) | IC50 [2]: 0.01 to 0.1 µM

Cn1ncc2c(-c3ccc(-n4c(=O)n(CC(=O)NCC(F)(F)F)c5cccc(C#N)c54)cc3)cncc21 [Example 74, 2-[4-cyano-3-[4-(1-methylpyrazolo[3,4-c]pyridin-4-yl)phenyl]-2-oxo-benzimidazol-1-yl]-N-(2,2,2-trifluoroethyl)acetamide]
DDR2 pIC50 [1]: D (pIC50≤6) | IC50 [2]: 0.01 to 0.1 µM

Cc1cccc2c1n(-c1ccc(-c3cncc4[nH]ncc34)cn1)c(=O)n2CC(=O)N1CCO[C@@H](C(F)(F)F)C1 [Example 71, 4-methyl-1-[2-oxo-2-[(2R)-2-(trifluoromethyl)morpholin-4-yl]ethyl]-3-[5-(1H-pyrazolo[3,4-c]pyridin-4-yl)-2-pyridyl]benzimidazol-2-one]
IC50 [1]: 0.1 to 1 µM | DDR1 pIC50 [2]: A (pIC50>8)

Cn1ncc2c(-c3ccc(-n4c(=O)n(CC(=O)NCC(F)(F)F)c5cccc(F)c54)cc3)cncc21 [Example 86, 2-[4-fluoro-3-[4-(1-methylpyrazolo[3,4-c]pyridin-4-yl)phenyl]-2-oxo-benzimidazol-1-yl]-N-(2,2,2-trifluoroethyl)acetamide]
DDR2 pIC50 [1]: D (pIC50≤6) | IC50 [2]: 0.1 to 1 µM

Cn1ncc2c(-c3ccc(-n4c(=O)n(CC(=O)N5CCC[C@H]5C(F)(F)F)c5cccnc54)cc3)cncc21 [Example 79, 3-[4-(1-methylpyrazolo[3,4-c]pyridin-4-yl)phenyl]-1-[2-oxo-2-[(2S)-2-(trifluoromethyl)pyrrolidin-1-yl]ethyl]imidazo[4,5-b]pyridin-2-one]
DDR2 pIC50 [1]: D (pIC50≤6) | IC50 [2]: 0.01 to 0.1 µM

Cn1ncc2c(-c3ccc(-n4c(=O)n(CC(=O)NCC(F)(F)F)c5cccc(Cl)c54)cc3)cncc21 [Example 11, 2-[4-chloro-3-[4-(1-methylpyrazolo[3,4-c]pyridin-4-yl)phenyl]-2-oxobenzimidazol-1-yl]-N-(2,2,2-trifluoroethyl)acetamide]
IC50 [1]: 0.01 to 0.1 µM | DDR1 pIC50 [2]: A (pIC50>8)

Cn1ncc2c(-c3ccc(-n4c(=O)n(CC(=O)NCC(F)(F)F)c5ccccc54)c(F)c3)cncc21 [Example 15, 2-[3-[2-fluoro-4-(1-methylpyrazolo[3,4-c]pyridin-4-yl)phenyl]-2-oxo-benzimidazol-1-yl]-N-(2,2,2-trifluoroethyl)acetamide]
DDR2 pIC50 [1]: D (pIC50≤6) | IC50 [2]: 0.1 to 1 µM

Cc1cc(-c2cncc3c2cnn3C)cnc1-n1c(=O)n(CC(=O)N[C@H](C)C(F)(F)F)c2cccc(C)c21 [Example 111]
DDR2 pIC50 [1]: D (pIC50≤6) | IC50 [2]: 0.1 to 1 µM
